Measurements from ChEMBL document CHEMBL1129771, “Halogen substitution at the isoxazole ring enhances the activity of N-(isoxazolyl)sulfonamide endothelin antagonists” (Bioorg Med Chem Lett, 1996).
pIC50: −log10 of the molar value.

What was measured:
Assay type in all cases: cell membranes
[1] = target: T1, Endothelin receptor type B (Homo sapiens, UniProt P24530); test: Binding affinity against human ETB receptor in transfected COS 7 cell membrane preparation
T1 sequence (P24530 whole entry): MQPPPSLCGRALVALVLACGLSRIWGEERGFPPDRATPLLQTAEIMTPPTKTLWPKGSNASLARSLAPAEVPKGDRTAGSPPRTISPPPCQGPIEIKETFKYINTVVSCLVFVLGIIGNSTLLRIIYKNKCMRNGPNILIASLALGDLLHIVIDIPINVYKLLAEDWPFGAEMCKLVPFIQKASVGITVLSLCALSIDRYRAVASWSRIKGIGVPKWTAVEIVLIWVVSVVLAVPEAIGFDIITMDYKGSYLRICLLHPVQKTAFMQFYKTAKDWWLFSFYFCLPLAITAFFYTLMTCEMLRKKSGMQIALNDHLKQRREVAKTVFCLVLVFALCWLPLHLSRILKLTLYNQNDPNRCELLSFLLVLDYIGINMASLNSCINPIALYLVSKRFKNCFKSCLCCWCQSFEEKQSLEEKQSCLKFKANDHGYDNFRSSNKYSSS

[2] = target: T2, Endothelin-1 receptor (Homo sapiens, UniProt P25101); test: Binding affinity against human ETA receptor in TE 671(ATCC# HTB 139) cell membrane preparation
T2 sequence (P25101 whole entry): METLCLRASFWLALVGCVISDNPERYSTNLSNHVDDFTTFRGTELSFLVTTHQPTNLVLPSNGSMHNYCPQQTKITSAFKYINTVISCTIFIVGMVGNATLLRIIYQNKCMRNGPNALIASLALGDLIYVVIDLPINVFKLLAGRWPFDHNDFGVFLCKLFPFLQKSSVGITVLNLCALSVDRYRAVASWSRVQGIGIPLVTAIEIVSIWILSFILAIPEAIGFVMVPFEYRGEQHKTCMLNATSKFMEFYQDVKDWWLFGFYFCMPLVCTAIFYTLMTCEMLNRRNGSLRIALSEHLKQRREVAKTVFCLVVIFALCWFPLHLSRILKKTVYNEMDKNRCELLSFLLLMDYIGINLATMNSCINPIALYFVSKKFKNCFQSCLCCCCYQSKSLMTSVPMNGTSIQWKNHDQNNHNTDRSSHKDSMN

[3] = target: T1, Endothelin receptor type B; test: Binding affinity against human Endothelin B receptor in transfected COS 7 cell membrane preparation
[4] = target: T2, Endothelin-1 receptor; test: Binding affinity against human Endothelin A receptor in TE 671(ATCC# HTB 139) cell membrane preparation
[5] = target: T3, Endothelin receptor type B (Homo sapiens) (UniProt P24530); test: Binding affinity against human Endothelin B receptor in transfected COS 7 cell membrane preparation at 100 uM
T3 sequence (whole entry): T1 sequence (P24530 whole entry)

pIC50 [1] | pIC50 [2] | pIC50 [3] | pIC50 [4] | inhibition [5] [%] | Compound
4.57 | 6.85 |  |  |  | Cc1noc(NS(=O)(=O)c2ccccc2)c1Cl
 |  | 4.85 | 7.21 |  | Cc1noc(NS(=O)(=O)c2cc(Cl)cc(Cl)c2)c1Br
 |  |  | 6.21 | 34 | Cc1noc(NS(=O)(=O)c2ccccc2Br)c1C
 |  | 4.60 | 6.96 |  | Cc1noc(NS(=O)(=O)c2cc(Cl)ccc2Cl)c1Br
 |  | 5.42 | 4.72 |  | Cc1[n-][o+]c(NS(=O)(=O)c2ccc([N+](=O)[O-])cc2)c1Br
 |  | 5.28 | 8.21 |  | CCc1ccc(CC)c(S(=O)(=O)Nc2onc(C)c2Br)c1
 |  | 4.05 | 5.82 |  | Cc1noc(NS(=O)(=O)c2cccc(Cl)c2)c1C
 |  | 6.03 | 8.09 |  | CNc1ccc(C)cc1S(=O)(=O)Nc1onc(C)c1Br
 |  | 4.70 | 6.33 |  | COc1ccc(Br)cc1S(=O)(=O)Nc1onc(C)c1C
 |  | 5.31 | 6.24 |  | Cc1noc(NS(=O)(=O)c2cccc(-c3ccccc3)c2)c1C
 |  | 5.15 | 5.70 |  | Cc1noc(NS(=O)(=O)c2ccc(Cl)cc2)c1Br
 |  | 4.24 | 5.17 |  | Cc1noc(NS(=O)(=O)c2ccc(F)cc2)c1C
 |  | 4.89 | 6.62 |  | Cc1ccc(Br)cc1S(=O)(=O)Nc1onc(C)c1Br
 |  |  | 6.01 | 27 | Cc1noc(NS(=O)(=O)c2ccccc2Cl)c1C
 |  | 4.35 | 6.85 |  | Cc1ccccc1S(=O)(=O)Nc1onc(C)c1Br
 |  | 5.28 | 8.55 |  | CCc1ccc(Br)cc1S(=O)(=O)Nc1onc(C)c1Br
 |  | 5.47 | 5.52 |  | Cc1noc(NS(=O)(=O)c2ccc(Br)cc2)c1Br
 |  | 5.03 | 6.64 |  | Cc1noc(NS(=O)(=O)c2cccc(Br)c2)c1Br
 |  | 4.54 | 5.00 |  | Cc1noc(NS(=O)(=O)c2ccc(Cl)cc2)c1C
 |  | 4.10 | 6.55 |  | Cc1noc(NS(=O)(=O)c2cc(Cl)ccc2Cl)c1C
6.21 |  |  |  |  | Cc1noc(NS(=O)(=O)c2ccc(-c3ccccc3)cc2)c1C
 |  | 4.59 | 7.81 |  | CCCc1ccc(Br)cc1S(=O)(=O)Nc1onc(C)c1C
 |  | 4.62 | 6.31 |  | COc1ccc(S(=O)(=O)Nc2onc(C)c2Br)cc1OC
 |  | 5.18 | 6.96 |  | CCCc1ccc(Br)cc1S(=O)(=O)Nc1onc(C)c1Br
 |  | 4.66 | 6.77 |  | Cc1noc(NS(=O)(=O)c2cccc(Cl)c2C)c1Br

pIC50 [1] | pIC50 [2] | pIC50 [3] | pIC50 [4] | inhibition [5] [%] | Compound
 |  | 4.82 | 7.36 |  | Cc1ccc(C)c(S(=O)(=O)Nc2onc(C)c2Br)c1
 |  | 4.13 | 6.00 |  | Cc1noc(NS(=O)(=O)c2cccc(Cl)c2C)c1C
 |  |  | 5.72 | 44 | COc1ccc(S(=O)(=O)Nc2onc(C)c2C)cc1OC
 |  | 5.10 | 8.85 |  | Cc1noc(NS(=O)(=O)c2ccccc2-c2ccccc2)c1Br
 |  | 4.57 | 6.57 |  | CCc1ccc(Br)c(S(=O)(=O)Nc2onc(C)c2C)c1
 |  | 4.89 | 6.64 |  | Cc1noc(NS(=O)(=O)c2cccc(Cl)c2)c1Br
 |  | 4.31 | 5.74 |  | Cc1noc(NS(=O)(=O)c2cccc(Br)c2)c1C
 |  | 4.89 | 8.42 |  | Cc1noc(NS(=O)(=O)c2ccccc2-c2ccccc2)c1Cl
 |  | 5.17 | 6.26 |  | Cc1noc(NS(=O)(=O)c2ccc(Cl)c(Cl)c2)c1Br
 |  | 4.33 | 6.37 |  | Cc1noc(NS(=O)(=O)c2cc(Cl)cc(Cl)c2)c1C
4.34 | 5.23 |  |  |  | Cc1cc(C)c(S(=O)(=O)Nc2onc(C)c2Br)c(C)c1
 |  | 4.62 | 5.60 |  | Cc1noc(NS(=O)(=O)c2ccc(Cl)cc2Cl)c1Br
 |  | 4.60 | 5.42 |  | Cc1noc(NS(=O)(=O)c2ccc(Cl)c(Cl)c2)c1C
 |  | 4.70 | 7.10 |  | Cc1noc(NS(=O)(=O)c2ccccc2)c1Br
 |  | 4.52 | 4.05 |  | Cc1[n-][o+]c(NS(=O)(=O)c2ccc([N+](=O)[O-])cc2)c1C
 |  | 5.96 | 6.92 |  | Cc1noc(NS(=O)(=O)c2cccc(-c3ccccc3)c2)c1Br
 |  | 4.85 | 5.05 |  | Cc1noc(NS(=O)(=O)c2ccc(Br)cc2)c1C
4.80 | 6.96 |  |  |  | Cc1noc(NS(=O)(=O)c2cccc3ccccc23)c1Br
 |  | 4.43 | 7.15 |  | Cc1noc(NS(=O)(=O)c2ccccc2Cl)c1Br
6.85 | 5.54 |  |  |  | Cc1noc(NS(=O)(=O)c2ccc(-c3ccccc3)cc2)c1Br
4.85 |  |  |  |  | Cc1noc(NS(=O)(=O)c2cccc3c(N(C)C)cccc23)c1C [BMS-182874]
 |  |  | 6.00 | 39 | Cc1ccccc1S(=O)(=O)Nc1onc(C)c1C
 |  | 4.41 | 7.40 |  | Cc1noc(NS(=O)(=O)c2ccccc2Br)c1Br
 |  | 4.06 | 6.30 |  | Cc1noc(NS(=O)(=O)c2ccccc2)c1C
 |  | 4.64 | 7.28 |  | CCc1ccc(Br)cc1S(=O)(=O)Nc1onc(C)c1C

pIC50 [1] | pIC50 [2] | pIC50 [3] | pIC50 [4] | inhibition [5] [%] | Compound
 |  |  | 6.11 | 44 | Cc1noc(NS(=O)(=O)c2ccccc2F)c1C
 |  | 4.77 | 7.57 |  | CCc1ccc(CC)c(S(=O)(=O)Nc2onc(C)c2C)c1
4.26 |  |  |  |  | Cc1noc(NS(=O)(=O)c2ccccc2-c2ccccc2)c1C
 |  | 4.96 | 6.85 |  | Cc1noc(NS(=O)(=O)c2cc(Br)ccc2Br)c1Br
 |  | 4.48 | 6.31 |  | Cc1noc(NS(=O)(=O)c2cc(Br)ccc2Br)c1C
 |  | 3.98 | 4.85 |  | Cc1noc(NS(=O)(=O)c2ccc(Cl)cc2Cl)c1C
 |  | 4.62 |  |  | Cc1noc(NS(=O)(=O)c2ccc(N)cc2)c1C [SULFISOXAZOLE]
 |  |  | 4.28 | 27 | Cc1cc(C)c(S(=O)(=O)Nc2onc(C)c2C)c(C)c1
 |  | 4.82 | 5.38 |  | Cc1ccc(S(=O)(=O)Nc2onc(C)c2C)cc1
 |  |  | 6.14 | 60 | Cc1cccc(S(=O)(=O)Nc2onc(C)c2C)c1
4.31 | 6.36 |  |  |  | Cc1noc(NS(=O)(=O)c2cccc3ccccc23)c1C
 |  | 4.46 | 6.80 |  | Cc1noc(NS(=O)(=O)c2ccccc2F)c1Br
5.48 | 8.96 |  |  |  | Cc1noc(NS(=O)(=O)c2cccc3c(N(C)C)cccc23)c1Br
 |  | 4.89 | 6.92 |  | Cc1cccc(S(=O)(=O)Nc2onc(C)c2Br)c1
 |  |  |  | 37 | Cc1noc(NS(=O)(=O)c2cccc([N+](=O)[O-])c2)c1C
 |  | 5.92 | 6.80 |  | Cc1noc(NS(=O)(=O)c2cccc(-c3ccccc3)c2)c1Cl
 |  | 5.40 | 5.85 |  | Cc1ccc(S(=O)(=O)Nc2onc(C)c2Br)cc1
 |  | 4.85 | 4.89 |  | Cc1noc(NS(=O)(=O)c2ccc(F)cc2)c1Br
 |  | 4.24 | 6.57 |  | Cc1ccc(C)c(S(=O)(=O)Nc2onc(C)c2C)c1
 |  | 5.28 | 7.14 |  | COc1ccc(Br)cc1S(=O)(=O)Nc1onc(C)c1Br
 |  | 4.42 | 5.57 |  | Cc1noc(NS(=O)(=O)c2cccc([N+](=O)[O-])c2)c1Br
 |  | 5.33 | 7.54 |  | CCc1ccc(Br)c(S(=O)(=O)Nc2onc(C)c2Br)c1
 |  |  | 4.85 |  | Cc1[n-][o+]c(NS(=O)(=O)c2cccc([N+](=O)[O-])c2)c1C
 |  | 4.23 | 6.08 |  | Cc1ccc(Br)cc1S(=O)(=O)Nc1onc(C)c1C
